Results as given in PubChem BioAssay (NCI).
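The compound was tested at five concentrations on cells cultured in 96-well plates, with a 48-hour exposure period. The concentration for full growth arrest is given as TGI.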

How the values were obtained:
Test in all cases: NCI anticancer screen, dose series, 48 h
UACC-257 melanoma = test system: UACC-257 melanoma
U251 CNS = test system: U251 CNS
OVCAR-3 ovarian = test system: OVCAR-3 ovarian
UACC-62 melanoma = test system: UACC-62 melanoma
SNB-19 CNS = test system: SNB-19 CNS
SK-MEL-2 melanoma = test system: SK-MEL-2 melanoma
RPMI-8226 leukemia = test system: RPMI-8226 leukemia
SW-620 colon = test system: SW-620 colon
HT29 colon = test system: HT29 colon
NCI-H23 lung = test system: NCI-H23 lung
SF-295 CNS = test system: SF-295 CNS
HCT-15 colon = test system: HCT-15 colon
HL-60(TB) leukemia = test system: HL-60(TB) leukemia
RXF 393 renal = test system: RXF 393 renal
COLO 205 colon = test system: COLO 205 colon
NCI-H460 lung = test system: NCI-H460 lung
A549 NSCLC = test system: A549 NSCLC
HOP-92 NSCLC = test system: HOP-92 NSCLC
DU-145 prostate = test system: DU-145 prostate

| SMILES | TGI (UACC-257 melanoma) | TGI (U251 CNS) | TGI (OVCAR-3 ovarian) | TGI (UACC-62 melanoma) | TGI (SNB-19 CNS) | TGI (SK-MEL-2 melanoma) | TGI (RPMI-8226 leukemia) | TGI (SW-620 colon) | TGI (HT29 colon) | TGI (NCI-H23 lung) | TGI (SF-295 CNS) | TGI (HCT-15 colon) | TGI (HL-60(TB) leukemia) | TGI (RXF 393 renal) | TGI (COLO 205 colon) | TGI (NCI-H460 lung) | TGI (A549 NSCLC) | TGI (HOP-92 NSCLC) | TGI (DU-145 prostate) |
| --- | --- | --- | --- | --- | --- | --- | --- | --- | --- | --- | --- | --- | --- | --- | --- | --- | --- | --- | --- |
| Oc1[nH]c(=S)[nH]c1/C=C1/C(c2ccccc2)=Nc2ccccc21 | 29 µM | 34.9 µM | 30 µM | 26.4 µM | 76.3 µM | 26 µM | 36.2 µM | 31.9 µM | 30.5 µM | 29 µM | 26.5 µM | 31.2 µM | 26.1 µM | 28.7 µM | 31.8 µM | 27.6 µM |  |  |  |
| CC(=O)Nc1ccc(-c2nnc(SCC(=O)Nc3cccc(Cl)c3)o2)cc1 | 43.6 µM | 23.2 µM | 22.1 µM | 33.9 µM | 39.4 µM | 70.4 µM | > 100 µM | 28 µM | 31 µM | 23 µM | 33.6 µM | > 100 µM | 60.4 µM | 31.4 µM | 31 µM | 51.2 µM | 33.1 µM |  |  |
| COc1ccc(N2C(=O)C3c4[nH]c5ccccc5c4C4CC(C)(C)CC(C)(C)C4C3C2=O)cc1 (stereo not given) | 46.1 µM | 31.2 µM |  | 27.6 µM | 52.7 µM |  | > 100 µM | 71.7 µM | > 100 µM | 33.9 µM | 21.4 µM | > 100 µM | > 100 µM | 33.1 µM | 34.8 µM |  | 27.3 µM | 28.7 µM |  |
| Cc1c(/C=N/NC(=S)Nc2ccc(Cl)cc2)c(=O)n(-c2ccccc2)n1C | > 100 µM | 30.7 µM | > 65.3 µM | > 79 µM | > 60.8 µM | 69 µM | > 100 µM | > 100 µM | > 100 µM | 54.5 µM | 44.5 µM | > 100 µM | > 100 µM | 28 µM | > 100 µM | > 61 µM | > 95.9 µM |  | > 100 µM |
| CC(C)(Oc1ccc(Cl)cc1)C(=O)N(C(=O)N1CCCCC1)c1ccccc1 |  | 39.2 µM | 75.1 µM | 27.5 µM | 42.5 µM | 32 µM | > 100 µM | > 100 µM | 66.1 µM | 33.1 µM |  | 24.6 µM | 21 µM | 33.3 µM | > 100 µM |  |  |  | 27.8 µM |
| COC1(C)C(=O)N2C1N(C(=O)OC(C)(C)C)CC2(C)C (stereo not given) | > 100 µM | > 100 µM | > 100 µM | > 100 µM | > 100 µM | > 100 µM | > 100 µM | 37.5 µM | > 100 µM | > 100 µM | > 100 µM | > 100 µM | > 100 µM | > 100 µM | > 100 µM | > 100 µM | > 100 µM | > 100 µM |  |
| CCCC1CC(=O)NC(=O)C1C(=O)OC(C)(C)C (stereo not given) | > 100 µM | > 100 µM | > 100 µM | > 100 µM | > 100 µM | > 100 µM | > 100 µM | > 100 µM | > 100 µM | > 100 µM | > 100 µM | > 100 µM | > 100 µM | > 100 µM | > 100 µM | > 100 µM |  |  | > 100 µM |
